Like-named read-outs stand apart in the source and are kept apart here. Numbered stars: 1 amine (or outer) side, 2 acyl side, 3 side chain; on linkers, the order of the positions; unused ones are H or OH. Bridge positions count the residues as written; N and C are the ends. Square brackets hold non-standard residues; d marks the D form. Peptide text beside a SMILES is read from it. * marks the point of attachment. Tartaroyl(2R,3R-(OAc)2) = CC(=O)O[C@@H](C(=O)[*:1])[C@@H](OC(C)=O)C(=O)[*:2]; Gly(N-(4-CH2NH-benzyl)) = O=C(CN(Cc1ccc(CN[*:3])cc1)[*:1])[*:2]; Phe(4-CF3) = N[C@@H](Cc1ccc(C(F)(F)F)cc1)C(=O)O; Phe(2,4-Cl2) = N[C@@H](Cc1ccc(Cl)cc1Cl)C(=O)O; dPhe(3-OMe) = COc1cccc(C[C@@H](N)C(=O)O)c1; Bip = N[C@@H](Cc1ccc(-c2ccccc2)cc1)C(=O)O; dPhe(4-NH2) = Nc1ccc(C[C@@H](N)C(=O)O)cc1; Phe(4-Br) = N[C@@H](Cc1ccc(Br)cc1)C(=O)O; dPhe(4-Br) = N[C@H](Cc1ccc(Br)cc1)C(=O)O; Phe(4-NH2) = Nc1ccc(C[C@H](N)C(=O)O)cc1; dAla(2-furyl) = N[C@H](Cc1ccco1)C(=O)O; d(β3hF) = N[C@@H](CC(=O)O)Cc1ccccc1; d(hPhe) = N[C@H](CCc1ccccc1)C(=O)O; d3Pal = N[C@H](Cc1cccnc1)C(=O)O; 2Thi = N[C@@H](Cc1cccs1)C(=O)O; d2Thi = N[C@H](Cc1cccs1)C(=O)O; Suc = O=C(CCC(=O)[*:2])[*:1]; Nphe = O=C(O)CNCc1ccccc1; Boc = CC(C)(C)OC(=O)*; Aib = CC(C)(N)C(=O)O; GABA = NCCCC(=O)O; OtBu = CC(C)(C)O*
Target: T1, TNFα / TNFα receptor (TNFα R1/Fc) (Homo sapiens, UniProt P01375)
T1 construct: purchased R&D Systems
T1 sequence (P01375 77-233 limits assumed, species assumed): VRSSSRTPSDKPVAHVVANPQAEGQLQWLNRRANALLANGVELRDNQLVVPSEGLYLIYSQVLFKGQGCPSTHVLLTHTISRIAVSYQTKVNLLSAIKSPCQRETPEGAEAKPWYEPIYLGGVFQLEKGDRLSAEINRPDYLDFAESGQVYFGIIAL
Test: Inhibition of binding of TNFα to the TNFα receptor (plate ELISA competition)
Settings: Table 2
Procedure, shortened: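 Compound dilutions were preincubated 30 min at RT with 8.33 nM TNFα R1/Fc in PBST with 2% DMSO, then added to wells coated with 15 nM TNFα for 30 min. Bound receptor was detected with HRP anti-human Fc and TMB, read as A450.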

[1] = read-out: Activity (IC50, inhibition of TNFα binding to TNFα R1/Fc)
[2] = Activity (IC50, inhibition of TNFα binding to TNFα R1/Fc)

Row | Structure (SMILES) | IC50 [1] [µM] | IC50 [2] [µM]
1 | COc1cccc(C[C@H]2NC(=O)CCC(=O)Nc3ccc(cc3)C[C@@H](C(=O)O)NC(=O)[C@@H](Cc3ccccc3)NC(=O)[C@H](Cc3ccc(C(F)(F)F)cc3)NC2=O)c1 [Compound 138] ([dPhe(3-OMe)][Phe(4-CF3)][dF][Phe(4-NH2)]-OH; linker N-4 via Suc) | > 100 | 
2 | C[C@H]1NC(=O)CCC(=O)Nc2ccc(cc2)C[C@@H](C(=O)O)NC(=O)[C@@H](Cc2ccccc2)NC(=O)[C@H](Cc2ccc(-c3ccccc3)cc2)NC1=O [Compound 46] ([dA][Bip][dF][Phe(4-NH2)]-OH; linker N-4 via Suc) | > 100 | 
3 | O=C1CCC(=O)N[C@H](Cc2ccccc2)C(=O)N[C@@H](Cc2ccc(Br)cc2)C(=O)N[C@H](Cc2ccco2)C(=O)N[C@@H](C(=O)O)Cc2ccc(cc2)N1 [Compound 153] ([dF][Phe(4-Br)][dAla(2-furyl)][dPhe(4-NH2)]-OH; linker N-4 via Suc) | > 100 | 
4 | COc1ccc(C[C@H]2NC(=O)CCC(=O)Nc3ccc(cc3)C[C@@H](C(=O)O)NC(=O)[C@@H](Cc3ccccc3)NC(=O)[C@H](Cc3ccc(C(F)(F)F)cc3)NC2=O)cc1 [Compound 162] ([dY](Me)[Phe(4-CF3)][dF][Phe(4-NH2)]-OH; linker N-4 via Suc) | > 100 | 
5 | O=C1COc2ccc(cc2)C[C@@H](C(=O)O)NC(=O)[C@@H](Cc2ccccc2)NC(=O)[C@@H](Cc2ccc(-c3ccccc3)cc2)NC(=O)[C@H](Cc2cccs2)N1 [Compound 210] | > 100 | 
6 | O=C1COc2ccc(cc2)C[C@H](C(=O)N[C@@H](Cc2ccccc2)C(=O)O)NC(=O)[C@@H](CCc2ccccc2)NC(=O)[C@H](Cc2ccc(-c3ccccc3)cc2)NC(=O)[C@@H](Cc2cccs2)N1 [Compound 561] |  | < 10
7 | CC(C)(C)OC(=O)C[C@H]1NC(=O)[C@H](Cc2ccc(-c3ccccc3)cc2)NC(=O)[C@@H](Cc2cccs2)NC(=O)CCC(=O)Nc2ccc(cc2)C[C@@H](C(=O)O)NC1=O [Compound 63] ([d2Thi][Bip][dD](OtBu)[Phe(4-NH2)]-OH; linker N-4 via Suc) | > 100 | 
8 | O=C1COc2ccc(cc2)C[C@@H](C(=O)N[C@@H](CO)C(=O)O)NC(=O)[C@H](CCc2ccccc2)NC(=O)[C@@H](Cc2ccc(-c3ccccc3)cc2)NC(=O)[C@H](Cc2ccncc2)N1 [Compound 556] |  | < 10
9 | O=C1COc2ccc(cc2)C[C@@H](C(=O)O)NC(=O)[C@@H](Cc2ccccc2)NC(=O)[C@@H](Cc2ccc(-c3ccccc3)cc2)NC(=O)[C@@H](Cc2cccs2)N1 [Compound 209] | > 100 | 
10 | CC(C)(C)OC(=O)C[C@H](NC(=O)[C@@H]1Cc2ccc(cc2)OCC(=O)N[C@@H](Cc2cccs2)C(=O)N[C@H](Cc2ccc(-c3ccccc3)cc2)C(=O)N[C@@H](Cc2ccccc2)C(=O)N1)C(=O)O [Compound 389] | > 100 | 
11 | CC(C)(NC(=O)[C@@H]1Cc2ccc(cc2)NC(=O)CCC(=O)N[C@H](Cc2cccs2)C(=O)N[C@@H](Cc2ccc(-c3ccccc3)cc2)C(=O)N[C@H](CCc2ccccc2)C(=O)N1)C(=O)O [Compound 452] ([d2Thi][Bip][d(hPhe)][Phe(4-NH2)][Aib]-OH; linker N-4 via Suc) | > 100 | 
12 | O=C1COc2ccc(cc2)C[C@@H](C(=O)N[C@@H](CO)C(=O)O)NC(=O)[C@H](Cc2ccc(O)cc2)NC(=O)[C@@H](Cc2ccc(-c3ccccc3)cc2)NC(=O)[C@H](Cc2cccs2)N1 [Compound 563] | 30 to 100 | 
13 | O=C1CCC(=O)N[C@H](Cc2cccs2)C(=O)N[C@@H](Cc2ccc(-c3ccccc3)cc2)C(=O)N[C@H](Cc2ccccc2)CC(=O)N[C@H](C(=O)O)Cc2ccc(cc2)N1 [Compound 56] ([d2Thi][Bip][d(β3hF)][Phe(4-NH2)]-OH; linker N-4 via Suc) | > 100 | 
14 | CC(C)(C)OC(=O)NCCCC(=O)N[C@H]1CC(=O)Nc2ccc(cc2)C[C@@H](C(=O)O)NC(=O)[C@@H](Cc2ccccc2)NC(=O)[C@H](Cc2ccc(-c3ccccc3)cc2)NC(=O)[C@@H](Cc2cccs2)NC1=O [Compound 516] ({Boc-GABA}-D[d2Thi][Bip][dF][Phe(4-NH2)]-OH; lactam 1-5) | 30 to 100 | 
15 | CC(=O)O[C@H]1C(=O)Nc2ccc(cc2)C[C@@H](C(=O)N[C@@H](Cc2ccccc2)C(=O)O)NC(=O)[C@H](Cc2ccccc2)NC(=O)[C@@H](Cc2ccc(Br)cc2)NC(=O)[C@H](Cc2cccs2)NC(=O)[C@@H]1OC(C)=O [Compound 418] ([2Thi][dPhe(4-Br)]F[Phe(4-NH2)]F-OH; linker N-4 via Tartaroyl(2R,3R-(OAc)2)) | > 100 | 
16 | O=C1CCC(=O)N[C@H](Cc2cccnc2)C(=O)N[C@@H](Cc2ccc(-c3ccccc3)cc2)C(=O)N[C@H](Cc2ccccc2)C(=O)N[C@H](C(=O)O)Cc2ccc(cc2)N1 [Compound 126] ([d3Pal][Bip][dF][Phe(4-NH2)]-OH; linker N-4 via Suc) | > 100 | 

Now from value to compound, other results behind:

Row | IC50 [1] [µM] | Structure (SMILES) | IC50 [2] [µM]
17 | 30 to 100 | O=C(O)CN1Cc2ccc(cc2)CNC(=O)CCC(=O)N[C@H](Cc2cccs2)C(=O)N[C@@H](Cc2ccc(-c3ccccc3)cc2)C(=O)N[C@H](Cc2ccccc2)C1=O [Compound 186] ([d2Thi][Bip][dF][Gly(N-(4-CH2NH-benzyl))]-OH; linker N-4 via Suc) | 
18 | < 10 | O=C(O)[C@H](Cc1ccccc1)NC(=O)[C@H]1Cc2ccc(cc2)NC(=O)[C@H](O)[C@@H](O)C(=O)N[C@H](Cc2cccs2)C(=O)N[C@@H](Cc2ccc(-c3ccccc3)cc2)C(=O)N[C@H](CCc2ccccc2)C(=O)N1 [Compound 429] | 
19 | < 10 | Cc1ccc(C[C@@H]2NC(=O)COc3ccc(cc3)C[C@@H](C(=O)O)NC(=O)[C@H](CCc3ccccc3)NC(=O)[C@@H](Cc3ccc(-c4ccccc4)cc3)NC2=O)cc1 [Compound 692] | 
20 | < 10 | O=C(O)CN(Cc1ccccc1)C(=O)[C@@H]1Cc2ccc(cc2)NC(=O)CCC(=O)N[C@H](CCc2ccccc2)C(=O)N[C@@H](Cc2ccc(-c3ccccc3)cc2)C(=O)N[C@H](Cc2ccccc2)C(=O)N1 [Compound 504] ([d(hPhe)][Bip][dF][Phe(4-NH2)][Nphe]-OH; linker N-4 via Suc) | 
21 | 30 to 100 | NCCCC[C@H](NC(=O)[C@@H]1Cc2ccc(cc2)NC(=O)[C@H](O)[C@@H](O)C(=O)N[C@H](Cc2cccs2)C(=O)N[C@@H](Cc2ccc(-c3ccccc3)cc2)C(=O)N[C@H](Cc2ccccc2)C(=O)N1)C(=O)O [Compound 296] | 
22 | 10 to 30 | O=C1CCC(=O)N[C@H](CCc2ccccc2)C(=O)N[C@@H](Cc2ccc(Cl)cc2Cl)C(=O)N[C@H](Cc2ccccc2)C(=O)N[C@@H](C(=O)N[C@@H](Cc2ccccc2)C(=O)O)Cc2ccc(cc2)N1 [Compound 441] ([d(hPhe)][Phe(2,4-Cl2)][dF][dPhe(4-NH2)]F-OH; linker N-4 via Suc) | 
23 | < 10 | O=C1COc2ccc(cc2)C[C@@H](C(=O)O)NC(=O)[C@@H](CCc2ccccc2)NC(=O)[C@H](Cc2ccc(-c3ccccc3)cc2)NC(=O)[C@@H](Cc2ccc(-c3ccncc3)cc2)N1 [Compound 518] | 
24 | < 10 | O=C1COc2ccc(cc2)C[C@@H](C(=O)N[C@H](Cc2ccccc2)C(=O)O)NC(=O)[C@H](Cc2ccccc2)NC(=O)[C@@H](Cc2ccc(-c3ccccc3)cc2)NC(=O)[C@H](Cc2cccs2)N1 [Compound 227] | 
25 | < 10 | CC(C)(C)Oc1ccc(C[C@@H]2NC(=O)COc3ccc(cc3)C[C@@H](C(=O)O)NC(=O)[C@H](CCc3ccccc3)NC(=O)[C@@H](Cc3ccc(-c4ccccc4)cc3)NC2=O)cc1 [Compound 514] | 
26 | < 10 | O=C1COc2ccc(cc2)C[C@H](C(=O)O)NC(=O)[C@H](CCc2ccccc2)NC(=O)[C@@H](Cc2ccc(-c3ccccc3)cc2)NC(=O)[C@H](Cc2c[nH]c3ccccc23)N1 [Compound 730] | 
27 | < 10 | O=C(O)[C@H](Cc1ccccc1)NC(=O)[C@@H]1Cc2ccc(cc2)NC(=O)[C@H](O)[C@@H](O)C(=O)N[C@@H](Cc2cccs2)C(=O)N[C@H](Cc2ccc(-c3ccccc3)cc2)C(=O)N[C@@H](Cc2ccccc2)C(=O)N1 [Compound 435] | 
28 | < 10 | COc1ccc(C[C@@H]2NC(=O)COc3ccc(cc3)C[C@@H](C(=O)O)NC(=O)[C@H](CCc3ccccc3)NC(=O)[C@@H](Cc3ccc(-c4ccccc4)cc3)NC2=O)cc1 [Compound 681] | 
29 | < 10 | O=C1COc2ccc(cc2)C[C@@H](C(=O)O)NC(=O)[C@H](CCc2ccccc2)NC(=O)[C@@H](Cc2ccc(-c3ccccc3)cc2)NC(=O)[C@H](Cc2ccccc2C(F)(F)F)N1 [Compound 689] | 
30 | 10 to 30 | O=C1CCC(=O)N[C@H](Cc2ccccc2)C(=O)N[C@@H](Cc2ccc(-c3ccccc3)cc2)C(=O)N[C@H](CCc2ccccc2)C(=O)N[C@H](C(=O)O)Cc2ccc(cc2)N1 [Compound 454] ([dF][Bip][d(hPhe)][Phe(4-NH2)]-OH; linker N-4 via Suc) | 
31 | < 10 | O=C1COc2ccc(cc2)C[C@@H](C(=O)O)NC(=O)[C@H](CCc2ccccc2)NC(=O)[C@@H](Cc2ccc(-c3ccccc3)cc2)NC(=O)[C@H](Cc2ccc(F)cc2)N1 [Compound 679] | 
32 | < 10 | O=C1COc2ccc(cc2)C[C@@H](C(=O)O)NC(=O)[C@H](Cc2ccccc2C(F)(F)F)NC(=O)[C@@H](Cc2ccc(-c3ccccc3)cc2)NC(=O)[C@H](Cc2ccncc2)N1 [Compound 649] | 
33 | < 10 | O=C1COc2ccc(cc2)C[C@@H](C(=O)O)NC(=O)[C@H](Cc2c[nH]c3ccccc23)NC(=O)[C@@H](Cc2ccc(-c3ccccc3)cc2)NC(=O)[C@H](Cc2cccs2)N1 [Compound 640] | 
34 | 10 to 30 | CC(C)(C)OC(=O)CC[C@@H]1NC(=O)[C@@H](Cc2ccc(-c3ccccc3)cc2)NC(=O)[C@H](Cc2cccs2)NC(=O)COc2ccc(cc2)C[C@@H](C(=O)O)NC1=O [Compound 349] | 
35 | 10 to 30 | O=C(O)[C@H](Cc1ccccc1)NC(=O)[C@@H]1Cc2ccc(cc2)NC(=O)[C@H](O)[C@@H](O)C(=O)N[C@H](Cc2cccs2)C(=O)N[C@@H](Cc2ccc(-c3ccc(Cl)cc3)cc2)C(=O)N[C@H](Cc2ccccc2)C(=O)N1 [Compound 443] | 
36 | < 10 | COc1cccc(C[C@@H]2NC(=O)COc3ccc(cc3)C[C@@H](C(=O)O)NC(=O)[C@H](CCc3ccccc3)NC(=O)[C@@H](Cc3ccc(-c4ccccc4)cc3)NC2=O)c1 [Compound 680] | 
